Data: the supplement of paper PMC12698765
Structures can show the parent of a compound that is named as a salt. ± gives the standard deviation of the averaged measurements.

Columns and labels:
[1] = system: 409B2 hiPSC (iCRISPR Cas9, FRMD7 editing); assay: HDR (precise edit) frequency relative to solvent control (fold (ratio to mock)); higher = more homology-directed repair outcomes
Experimental: (§1)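 Subset screen of 55 drugs tested at 5 concentrations around the effective screening dose, in 409B2 iCRISPR Cas9 hiPSCs editing FRMD7 with a ssDNA donor. Drugs were applied for 24 h. Viability was read by resazurin and editing outcomes by amplicon sequencing (HDR, NHEJ <2 bp microhomology, MMEJ ≥2 bp microhomology). Values are relative to solvent mock controls; two biological replicates.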

[2] = system: 409B2 hiPSC (iCRISPR Cas9, FRMD7 editing); assay: cell survival relative to solvent control (fold (ratio to mock)); higher = more surviving cells
Experimental: as §1

[3] = system: 409B2 hiPSC (iCRISPR Cas9, FRMD7 editing); assay: MMEJ-attributed deletion frequency relative to solvent control (fold (ratio to mock)); higher = more MMEJ outcomes
Experimental: as §1

[4] = system: 409B2 hiPSC (iCRISPR Cas9, FRMD7 editing); assay: NHEJ-attributed indel frequency relative to solvent control (fold (ratio to mock)); higher = more NHEJ outcomes
Experimental: as §1

Structure (SMILES)	HDR ([1]; 200 nM)	HDR ([1]; 500 nM)	cell survival ([2]; 200 nM)	cell survival ([2]; 500 nM)	MMEJ-attributed deletion frequency ([3]; 200 nM)	MMEJ-attributed deletion frequency ([3]; 500 nM)	NHEJ-attributed indel frequency ([4]; 200 nM)	NHEJ-attributed indel frequency ([4]; 500 nM)	HDR ([1]; 2000 nM)	HDR ([1]; 5000 nM)	cell survival ([2]; 2000 nM)	cell survival ([2]; 5000 nM)	MMEJ-attributed deletion frequency ([3]; 2000 nM)	MMEJ-attributed deletion frequency ([3]; 5000 nM)	NHEJ-attributed indel frequency ([4]; 2000 nM)	NHEJ-attributed indel frequency ([4]; 5000 nM)	HDR ([1]; 1000 nM)	cell survival ([2]; 1000 nM)	MMEJ-attributed deletion frequency ([3]; 1000 nM)	NHEJ-attributed indel frequency ([4]; 1000 nM)	other results
CC(=O)O[C@]1(C(C)=O)CC[C@H]2[C@@H]3C=C(C)C4=CC(=O)CC[C@]4(C)[C@H]3CC[C@@]21C [Megestrol Acetate] (in EtOH)	0.953 ± 0.015	0.96 ± 0.028	1.12	1.05	1.1 ± 0.091	0.9348 ± 0.0058	1 ± 0.045	1.02 ± 0.032	–	–	–	–	–	–	–	–	–	–	–	–	HDR ([1]; 20 nM): 0.975 ± 0.027; HDR ([1]; 50 nM): 0.93 ± 0.072; HDR ([1]; 100 nM): 0.95 ± 0.068; cell survival ([2]; 20 nM): 1.6; cell survival ([2]; 50 nM): 1.46; cell survival ([2]; 100 nM): 1.18; MMEJ-attributed deletion frequency ([3]; 20 nM): 1.01 ± 0.013; MMEJ-attributed deletion frequency ([3]; 50 nM): 1.16 ± 0.079; MMEJ-attributed deletion frequency ([3]; 100 nM): 0.9716 ± 0.0036; NHEJ-attributed indel frequency ([4]; 20 nM): 0.999 ± 0.028; NHEJ-attributed indel frequency ([4]; 50 nM): 1.004 ± 0.007; NHEJ-attributed indel frequency ([4]; 100 nM): 1.03 ± 0.037
O=[N+]([O-])O[C@@H]1CO[C@H]2[C@@H]1OC[C@@H]2O [Isosorbide 5-mononitrate] (in DMSO)	–	–	–	–	–	–	–	–	1.08 ± 0.25	1.14 ± 0.04	0.898	1.39	0.904 ± 0.25	0.993 ± 0.058	0.899 ± 0.036	0.9787 ± 0.0053	–	–	–	–	HDR ([1]; 10000 nM): 1.14 ± 0.051; HDR ([1]; 20000 nM): 1.07 ± 0.14; HDR ([1]; 50000 nM): 1.22 ± 0.11; cell survival ([2]; 10000 nM): 1.19; cell survival ([2]; 20000 nM): 1.15; cell survival ([2]; 50000 nM): 1.36; MMEJ-attributed deletion frequency ([3]; 10000 nM): 0.983 ± 0.057; MMEJ-attributed deletion frequency ([3]; 20000 nM): 0.994 ± 0.012; MMEJ-attributed deletion frequency ([3]; 50000 nM): 0.955 ± 0.048; NHEJ-attributed indel frequency ([4]; 10000 nM): 0.967 ± 0.016; NHEJ-attributed indel frequency ([4]; 20000 nM): 0.988 ± 0.033; NHEJ-attributed indel frequency ([4]; 50000 nM): 0.983 ± 0.013
C1CCN2C[C@@H]3C[C@@H](CN4CCCC[C@@H]34)[C@H]2C1 [Sparteine] (in DMSO)	1.04 ± 0.051	1.02 ± 0.15	1.05	1.26	1.03 ± 0.086	0.9904 ± 0.0051	0.9919 ± 0.0066	0.988 ± 0.035	–	–	–	–	–	–	–	–	–	–	–	–	HDR ([1]; 20 nM): 1.11 ± 0.044; HDR ([1]; 50 nM): 1.001 ± 0.0048; HDR ([1]; 100 nM): 1.05 ± 0.061; cell survival ([2]; 20 nM): 0.978; cell survival ([2]; 50 nM): 1.24; cell survival ([2]; 100 nM): 1; MMEJ-attributed deletion frequency ([3]; 20 nM): 0.908 ± 0.028; MMEJ-attributed deletion frequency ([3]; 50 nM): 0.866 ± 0.061; MMEJ-attributed deletion frequency ([3]; 100 nM): 0.957 ± 0.098; NHEJ-attributed indel frequency ([4]; 20 nM): 0.9845 ± 0.0022; NHEJ-attributed indel frequency ([4]; 50 nM): 0.98809 ± 0.00026; NHEJ-attributed indel frequency ([4]; 100 nM): 1.01 ± 0.011
Nc1ccn([C@@H]2O[C@H](CO)[C@@H](O)[C@@H]2O)c(=O)n1 [Cytarabine hydrochloride] (in DMSO)	0.652 ± 0.11	0.554 ± 0.099	0.467	0.161	1.08 ± 0.13	1.04 ± 0.18	1.01 ± 0.039	1.04 ± 0.04	–	–	–	–	–	–	–	–	–	–	–	–	HDR ([1]; 20 nM): 0.71 ± 0.068; HDR ([1]; 50 nM): 0.699 ± 0.1; HDR ([1]; 100 nM): 0.625 ± 0.018; cell survival ([2]; 20 nM): 1.01; cell survival ([2]; 50 nM): 0.968; cell survival ([2]; 100 nM): 0.672; MMEJ-attributed deletion frequency ([3]; 20 nM): 0.911 ± 0.12; MMEJ-attributed deletion frequency ([3]; 50 nM): 0.897 ± 0.049; MMEJ-attributed deletion frequency ([3]; 100 nM): 1.1 ± 0.021; NHEJ-attributed indel frequency ([4]; 20 nM): 1.02 ± 0.026; NHEJ-attributed indel frequency ([4]; 50 nM): 1.05 ± 0.022; NHEJ-attributed indel frequency ([4]; 100 nM): 1.03 ± 0.0015
Cc1nc(=O)c2cc(CN(C)c3ccc(C(=O)N[C@@H](CCC(=O)O)C(=O)O)s3)ccc2[nH]1 [Raltitrexed] (in DMSO)	1.138 ± 0.0048	1.13 ± 0.038	1.09	1.21	1.01 ± 0.14	1 ± 0.078	0.977 ± 0.023	0.967 ± 0.01	1.13 ± 0.042	1.13 ± 0.14	1.05	1.11	0.948 ± 0.012	1.02 ± 0.057	0.981 ± 0.026	0.957 ± 0.039	1.16 ± 0.1	0.963	1.12 ± 0.035	0.984 ± 0.021	–
Cc1c(C(C)C)c(=O)n(-c2ccccc2)n1C [Propyphenazone (4-Isopropylantipyrine)] (in DMSO)	1.04 ± 0.021	1.11 ± 0.044	1.03	1.24	0.984 ± 0.021	0.969 ± 0.059	1.01 ± 0.013	0.993 ± 0.022	1.07 ± 0.064	1.08 ± 0.031	1.2	1.13	0.954 ± 0.091	0.965 ± 0.06	0.995 ± 0.035	0.988 ± 0.014	1.1 ± 0.068	1.03	0.881 ± 0.036	0.993 ± 0.041	–
CC(C)/N=c1\cc2n(-c3ccc(Cl)cc3)c3ccccc3nc-2cc1Nc1ccc(Cl)cc1 [Clofazimine] (in DMSO)	0.942 ± 0.032	0.91 ± 0.019	0.955	1.06	1.07 ± 0.15	0.967 ± 0.077	1.01 ± 0.022	1.027 ± 0.004	0.794 ± 0.029	0.772 ± 0.058	0.597	0.252	0.957 ± 0.097	0.791 ± 0.14	1.028 ± 0.0037	0.974 ± 0.014	0.912 ± 0.042	0.752	0.949 ± 0.022	0.999 ± 0.017	–
O[C@@H]1[C@H](O)[C@H](O)CO[C@H]1O [D-Ribose] (in DMSO)	1.13 ± 0.04	1.01 ± 0.06	1.06	1.16	0.939 ± 0.061	1.02 ± 0.1	0.9958 ± 0.0022	0.999 ± 0.01	1.05 ± 0.025	1.06 ± 0.05	1.1	1.04	1.012 ± 0.0071	1.02 ± 0.16	1 ± 0.012	0.9861 ± 0.0075	1.13 ± 0.075	1.06	0.965 ± 0.026	0.979 ± 0.013	–
N=C(NCCCCCCNC(=N)NC(=N)Nc1ccc(Cl)cc1)NC(=N)Nc1ccc(Cl)cc1 [Chlorhexidine HCl] (in DMSO)	1.06 ± 0.051	1.09 ± 0.038	1.04	1.24	0.966 ± 0.067	0.8989 ± 0.0017	0.973 ± 0.014	0.995 ± 0.021	0.874 ± 0.023	0.294 ± 0.063	1.03	0.0831	1.07 ± 0.082	0.946 ± 0.12	1.05 ± 0.043	0.6546 ± 0.0051	1 ± 0.044	1.02	0.994 ± 0.067	0.997 ± 0.011	–
